This note sets out measurements from patent publication US11407738B2 (Achillion Pharmaceuticals, Inc., priority 2015, dated 2022).

Some results are limits rather than exact numbers.

Broadly, the IC50 is the point on the concentration scale where inhibition reaches its midpoint. High values mean lower potency, low ones higher potency.

For one assay, the target named is Human Factor D (Homo sapiens (Human), UniProt P00746). Description: Human Factor D assay. The format is biochemical. To be noted: Table 3; Factor D inhibition, substrate Z-L-Lys-SBzl. How it is done: Human Factor D (purified from human serum, Complement Technology, Inc.) at 80 nM final concentration is incubated with test compound at various concentrations for 5 min at room temperature in 50 mM Tris, 1M NaCl, pH 7.5. A synthetic substrate Z-L-Lys-SBzl and DTNB (Ellman's reagent) are added to final concentrations of 100 μM each. […] IC50 values are calculated by nonlinear regression of complement Factor D reaction rates as a function of test compound concentration.
Chain of Human Factor D (P00746 26-253): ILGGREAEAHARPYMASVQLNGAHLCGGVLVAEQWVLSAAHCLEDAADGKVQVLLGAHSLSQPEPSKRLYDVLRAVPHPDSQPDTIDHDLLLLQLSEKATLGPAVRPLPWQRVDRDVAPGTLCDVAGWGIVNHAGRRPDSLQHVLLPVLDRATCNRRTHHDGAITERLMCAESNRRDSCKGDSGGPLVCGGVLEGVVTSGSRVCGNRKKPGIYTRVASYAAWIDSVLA
Molecule `CO[C@@H]1CO[C@H]2[C@@H]1OC[C@H]2Oc1ncc(-c2ccc3c(c2)c(C(C)=O)cn3CC(=O)N2C[C@H](F)C[C@H]2C(=O)Nc2cccc(-c3ccccc3Cl)c2F)cn1` [Compound 503, (2S,4R)-1-(2-(3-Acetyl-5-(2-((3R,3aR,6R,6aR)-6-methoxyhexahydrofuro[3,2-b]furan-3-yloxy)pyrimidin-5-yl)-1H-indol-1-yl)acetyl)-N-(2′-chloro-2-fluorobiphenyl-3-yl)-4-fluoropyrrolidine-2-carboxamide] had an IC50 of less than 1 µM.
For `CC(=O)c1nn(CC(=O)N2C[C@H](F)C[C@H]2C(=O)OCc2cccc(Cl)c2F)c2ccc(-c3cnc(C)nc3)cc12` [Compound 515, 3-Chloro-2-fluorobenzyl (2S,4R)-1-(2-(3-acetyl-5-(2-methylpyrimidin-5-yl)-1H-indazol-1-yl)acetyl)-4-fluoropyrrolidine-2-carboxylate], the IC50 fell in the range of 1 to 10 µM.
Still for that read-out and setting: for `CC(=O)c1nn(CC(=O)N2C[C@H](F)C[C@H]2C(=O)Nc2ccc3c(S(=O)(=O)O)cccc3c2)c2ccc(-c3cnc(C)nc3)cc12` [Compound 511, 6-((2S,4R)-1-(2-(3-Acetyl-5-(2-methylpyrimidin-5-yl)-1H-indazol-1-yl)acetyl)-4-fluoropyrrolidine-2-carboxamido)naphthalene-1-sulfonic Acid] the value was 1 to 10 µM.
In turn, `COC(=O)C[C@H]1CCCN1C(=O)Cn1nc(C(C)=O)c2cc(-c3cnc(C)nc3)ccc21` [Compound 509, (R)-methyl 2-(1-(2-(3-acetyl-5-(2-methylpyrimidin-5-yl)-1H-indazol-1-yl)acetyl)pyrrolidin-2-yl)acetate] came in with an IC50 of more than 10 µM.
Still for that read-out and setting: the same measure for `CNS(=O)(=O)c1ccc(Cl)c(-c2cccc(NC(=O)[C@@H]3C[C@@H](F)CN3C(=O)Cn3nc(C(C)=O)c4cc(-c5cnc(C)nc5)ccc43)c2F)c1` [Compound 529, (2S,4R)-1-(2-(3-acetyl-5-(2-methylpyrimidin-5-yl)-1H-indazol-1-yl)acetyl)-N-(2′-chloro-2-fluoro-5′-(N-methylsulfamoyl)bi-phenyl-3-yl)-4-fluoropyrrolidine-2-carboxamide]: less than 1 µM; for `CC(=O)c1cn(CC(=O)NC(CC(F)(F)F)C(=O)Nc2cccc(-c3ccccc3Cl)c2F)c2ccc(-c3cnc(C)nc3)cc12` (centres unmarked) [Compound 507, 2-(2-(3-Acetyl-5-(2-methylpyrimidin-5-yl)-1H-indol-1-yl)acetamido)-N-(2′-chloro-2-fluorobiphenyl-3-yl)-4,4,4-trifluorobutanamide]: more than 10 µM.

Still in this assay, the particulars now being: Table 4; Factor D inhibition, substrate Z-L-Lys-SBzl.
`CC(=O)c1cc(CC(=O)N2C[C@H](F)C[C@H]2C(=O)Nc2cccc(Br)n2)n2ccc(-c3cnc(C)nc3)cc12` [Compound 643] displayed an IC50 of less than 1 µM.
`Cc1ncc(-c2ccc3c(c2)c(C(=O)NS(C)(=O)=O)nn3CC(=O)N2C[C@H](F)C[C@H]2C(=O)Nc2cccc(Br)n2)cn1` [Compound 585, 1-(2-((2S,4R)-2-((6-bromopyridin-2-yl)carbamoyl)-4-fluoropyrrolidin-1-yl)-2-oxoethyl)-5-(2-methylpyrimidin-5-yl)-N-(methylsulfonyl)-1H-indazole-3-carboxamide] had an IC50 of more than 10 µM.
The same measure, in the same setting: the same measure for `Cc1ncc(-c2ccc3c(c2)c(C(=O)CP(=O)(O)O)nn3CC(=O)N2C[C@H](F)C[C@H]2C(=O)Nc2cccc(Br)n2)cn1` [Compound 626, (2-(1-(2-((2S,4R)-2-((6-bromopyridin-2-yl)carbamoyl)-4-fluoropyrrolidin-1-yl)-2-oxoethyl)-5-(2-methylpyrimidin-5-yl)-1H-indazol-3-yl)-2-oxoethyl)phosphonic acid]: more than 10 µM; for `CC(=O)c1nn(CC(=O)N2C[C@H](F)C[C@H]2C(=O)Nc2cccc(Br)n2)c2ccc(N3C[C@H]4CCCC[C@H]4C3)cc12` [Compound 621, (2S,4R)-1-(2-(3-acetyl-5-((3aR,7aS)-hexahydro-1H-isoindol-2(3H)-yl)-1H-indazol-1-yl)acetyl)-N-(6-bromopyridin-2-yl)-4-fluoropyrrolidine-2-carboxamide]: less than 1 µM.
`CC[C@H](C(=O)Nc1cccc(Br)n1)N(C)C(=O)Cn1nc(C(C)=O)c2cc(-c3cnc(C)nc3)ccc21` [Compound 597, (R)-2-(2-(3-acetyl-5-(2-methylpyrimidin-5-yl)-1H-indazol-1-yl)-N-methylacetamido)-N-(6-bromopyridin-2-yl)butanamide] yielded an IC50 of more than 10 µM.
`CC(=O)c1nn(CC(=O)N2C[C@H](F)C[C@H]2c2nc3nc(Br)ccc3[nH]2)c2ccc(-c3cnc(C)nc3)cc12` [Compound 564, 2-(3-Acetyl-5-(2-methylpyrimidin-5-yl)-1H-indazol-1-yl)-1-((2S,4R)-2-(5-bromo-1H-imidazo[4,5-b]pyridin-2-yl)-4-fluoropyrrolidin-1-yl)ethan-1-one] registered an IC50 of more than 10 µM.
Still for that read-out and setting: the same measure for `CC(=O)c1nn(CC(=O)N2C[C@H](F)C[C@H]2CC(N)=O)c2ccc(-c3cnc(C)nc3)cc12` [Compound 575, 2-((2R,4R)-1-(2-(3-Acetyl-5-(2-methylpyrimidin-5-yl)-1H-indazol-1-yl)acetyl)-4-fluoropyrrolidin-2-yl)acetamide]: more than 10 µM; for `CC(=O)c1nn(CC(=O)N2C[C@H](F)C[C@H]2c2nnc(-c3cccc(Cl)c3F)[nH]2)c2ccc(-c3cnc(C)nc3)cc12` [Compound 571, 2-(3-acetyl-5-(2-methylpyrimidin-5-yl)-1H-indazol-1-yl)-1-((2S,4R)-2-(5-(3-chloro-2-fluorophenyl)-4H-1,2,4-triazol-3-yl)-4-fluoropyrrolidin-1-yl)ethan-1-one]: more than 10 µM.
Same read-out and setting: for `CC(=O)c1nn(CC(=O)N2C[C@H](F)C[C@H]2c2nnc(CCCC(F)(F)F)o2)c2ccc(-c3cnc(C)nc3)cc12` [Compound 583, 2-(3-Acetyl-5-(2-methylpyrimidin-5-yl)-H-indazol-1-yl)-1-((2S,4R)-4-fluoro-2-(5-(4,4,4-trifluorobutyl)-1,3,4-oxadiazol-2-yl)pyrrolidin-1-yl)ethan-1-one] the value was 1 to 10 µM; for `COCCN(C)CCN1CC(NC(=O)[C@@H]2C[C@@H](F)CN2C(=O)Cn2nc(C(C)=O)c3cc(-c4cnc(C)nc4)ccc32)CC1=O` (stereo partly drawn) [Compound 533, (2S,4R)-1-(2-(3-acetyl-5-(2-methylpyrimidin-5-yl)-1H-indazol-1-yl)acetyl)-4-fluoro-N-(1-(2-((2-methoxyethyl)(meth-yl)amino)ethyl)-5-oxopyrrolidine-3-yl)pyrrolidine-2-carboxamide], more than 10 µM.
Still for that read-out and setting: for `CC(=O)c1nn(CC(=O)N2C[C@H](F)C[C@@H]2c2nnc(-c3cccc(Cl)c3F)[nH]2)c2ccc(-c3cnc(C)nc3)cc12` [Compound 572, 2-(3-acetyl-5-(2-methylpyrimidin-5-yl)-1H-indazol-1-yl)-1-((2R,4R)-2-(5-(3-chloro-2-fluorophenyl)-4H-1,2,4-triazol-3-yl)-4-fluoropyrrolidin-1-yl)ethan-1-one] the value was more than 10 µM; for `CC(=O)c1nn(CC(=O)N2C[C@H](F)C[C@H]2C(=O)NCC#N)c2ccc(-c3cnc(C)nc3)cc12` [Compound 601], less than 1 µM.
`CC(=O)c1nn(CC(=O)N2C[C@H](F)C[C@H]2CC(=O)NC#N)c2ccc(-c3cnc(C)nc3)cc12` [Compound 579, 2-((2R,4R)-1-(2-(3-Acetyl-5-(2-methylpyrimidin-5-yl)-1H-indazol-1-yl)acetyl)-4-fluoropyrrolidin-2-yl)-N-cyanoacetamide] displayed an IC50 of more than 10 µM.
The molecule `CC[C@@H](NC(=O)Cn1nc(C(C)=O)c2cc(-c3cnc(C)nc3)ccc21)C(=O)Nc1cccc(Br)n1` [Compound 599] gave an IC50 of more than 10 µM.
